Molecular target: Albumin (Homo sapiens, UniProt P02768)
Experiment: Binding constant against human serum albumin (HSA)

Sequence of Albumin (P02768 whole entry): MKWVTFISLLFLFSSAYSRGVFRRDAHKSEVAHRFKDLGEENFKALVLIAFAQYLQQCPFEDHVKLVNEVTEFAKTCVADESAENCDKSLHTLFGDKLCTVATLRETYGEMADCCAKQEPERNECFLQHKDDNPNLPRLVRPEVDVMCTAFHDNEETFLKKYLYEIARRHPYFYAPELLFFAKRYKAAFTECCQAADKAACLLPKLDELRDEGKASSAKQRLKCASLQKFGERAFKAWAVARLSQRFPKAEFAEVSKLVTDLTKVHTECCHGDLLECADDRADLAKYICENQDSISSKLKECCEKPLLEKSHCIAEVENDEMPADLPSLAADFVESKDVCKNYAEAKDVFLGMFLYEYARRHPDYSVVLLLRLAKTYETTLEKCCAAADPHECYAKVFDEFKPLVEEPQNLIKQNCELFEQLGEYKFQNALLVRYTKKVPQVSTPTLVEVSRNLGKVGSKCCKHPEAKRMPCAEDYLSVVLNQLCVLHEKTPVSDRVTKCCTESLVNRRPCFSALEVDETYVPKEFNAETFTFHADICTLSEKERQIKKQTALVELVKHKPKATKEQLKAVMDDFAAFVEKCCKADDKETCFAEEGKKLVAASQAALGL

Row | SMILES | Log K'
1 | COc1ccc(Cl)cc1C(=O)NCCc1ccc(S(=O)(=O)NC(=O)NC2CCCCC2)cc1 [GLYBURIDE] | 0.68
2 | C=C[C@H]1C[N@@]2CC[C@H]1C[C@H]2[C@H](O)c1ccnc2ccc(OC)cc12 [QUININE] | 0.49
3 | CCCCC1C(=O)N(c2ccccc2)N(c2ccc(O)cc2)C1=O (centres undefined) [OXYPHENBUTAZONE ANHYDROUS] | 0.02
4 | Clc1cccc(Cl)c1N=C1NCCN1 [CLONIDINE] | 0.13
5 | CC(C)NCC(O)COc1cccc2[nH]ccc12 (centres undefined) [PINDOLOL] | 0.13
6 | Cc1ccc(/C(=C\CN2CCCC2)c2cccc(/C=C/C(=O)O)n2)cc1 [ACRIVASTINE] | 0.02
7 | Nc1nnc(-c2cccc(Cl)c2Cl)c(N)n1 [LAMOTRIGINE] | 0.13
8 | CCCCNc1ccc(C(=O)OCCN(C)C)cc1 [TETRACAINE] | 0.32
9 | N[C@@H](Cc1c[nH]c2ccccc12)C(=O)O [TRYPTOPHAN] | 0.78
10 | CCn1cc(C(=O)O)c(=O)c2cc(F)c(N3CCNCC3)cc21 [NORFLOXACIN] | 0.14
11 | CN(C)[C@@H]1C(O)=C(C(N)=O)C(=O)[C@@]2(O)C(O)=C3C(=O)c4c(O)cccc4[C@@](C)(O)[C@H]3C[C@@H]12 [TETRACYCLINE] | 0.08
12 | C=C[C@H]1C[N@@]2CC[C@H]1C[C@@H]2[C@@H](O)c1ccnc2ccc(OC)cc12 [QUINIDINE] | 0.44
13 | CC(=O)Oc1ccccc1C(=O)O [ASPIRIN] | 1.39
14 | Cc1ccc(S(=O)(=O)NC(=O)NN2CCCCCC2)cc1 [TOLAZAMIDE] | 0.42
15 | COc1cc2nc(N3CCN(C(=O)C4CCCO4)CC3)nc(N)c2cc1OC (centres undefined) [TERAZOSIN] | 0.16
16 | Clc1ccccc1C(c1ccccc1)(c1ccccc1)n1ccnc1 [CLOTRIMAZOLE] | 1.34
17 | CN(Cc1cnc2nc(N)nc(N)c2n1)c1ccc(C(=O)N[C@@H](CCC(=O)O)C(=O)O)cc1 [METHOTREXATE] | 0.77
18 | CC(C)(C)NC[C@H](O)COc1nsnc1N1CCOCC1 [TIMOLOL] | 0.33
19 | Cn1c(=O)c2c(ncn2C)n(C)c1=O [CAFFEINE] | 0.92
20 | CC(NC(C)(C)C)C(=O)c1cccc(Cl)c1 (centres undefined) [BUPROPION] | 0.05
21 | COc1cc(Cc2cnc(N)nc2N)cc(OC)c1OC [TRIMETHOPRIM] | 0.26
22 | CO/N=C(\C(=O)N[C@@H]1C(=O)N2C(C(=O)OC(C)OC(C)=O)=C(COC(N)=O)CS[C@H]12)c1ccco1 (some centres undefined) [CEFUROXIME AXETIL] | 0.56
23 | COc1cc2nc(N3CCN(C(=O)c4ccco4)CC3)nc(N)c2cc1OC [PRAZOSIN] | 0.06
24 | CN(C)CCCN1c2ccccc2Sc2ccc(C(F)(F)F)cc21 [TRIFLUPROMAZINE] | 1.05
25 | CN(C/C=C/C#CC(C)(C)C)Cc1cccc2ccccc12 [TERBINAFINE] | 1.17

Row | SMILES | Log K'
26 | C[C@]12CC[C@H]3[C@@H](CCC4=CC(=O)CC[C@@]43C)[C@@H]1CC[C@@H]2O [TESTOSTERONE] | 0.74
27 | CN/C(=N/CCSCc1nc[nH]c1C)NC#N [CIMETIDINE] | 0.44
28 | O=C(CCCN1CC=C(n2c(=O)[nH]c3ccccc32)CC1)c1ccc(F)cc1 [DROPERIDOL] | 0.43
29 | CCCNC(=O)NS(=O)(=O)c1ccc(Cl)cc1 [CHLORPROPAMIDE] | 0.44
30 | Nc1ccc(S(=O)(=O)Nc2ccnn2-c2ccccc2)cc1 [SULFAPHENAZOLE] | 0.21
31 | CN(C)c1cccc2c(S(=O)(=O)NCC(=O)O)cccc12 [DANSYLGLYCINE] | -0.26
32 | COCCc1ccc(OCC(O)CNC(C)C)cc1 (centres undefined) [METOPROLOL] | 0.29
33 | CC(CCc1ccccc1)NCC(O)c1ccc(O)c(C(N)=O)c1 (centres undefined) [LABETALOL] | 0.14
34 | C=CCOc1ccccc1OCC(O)CNC(C)C (centres undefined) [OXPRENOLOL] | 0.15
35 | CNS(=O)(=O)Cc1ccc2[nH]cc(CCN(C)C)c2c1 | 0.05
36 | CN(C)CCCN1c2ccccc2Sc2ccccc21 [PROMAZINE] | 0.92
37 | CC(C)NCC(O)COc1cccc2ccccc12 (centres undefined) [PROPRANOLOL] | 0.28
38 | CC[C@@]1(O)C(=O)OCc2c1cc1n(c2=O)Cc2cc3ccccc3nc2-1 [CAMPTOTHECIN] | 0.08
39 | CN(C)[C@@H]1C(O)=C(C(N)=O)C(=O)[C@@]2(O)C(O)=C3C(=O)c4c(O)cccc4C[C@H]3C[C@@H]12 [SANCYCLINE] | 0.21
40 | CNCCCN1c2ccccc2CCc2ccccc21 [DESIPRAMINE] | 0.61
41 | NS(=O)(=O)c1cc2c(cc1Cl)NCNS2(=O)=O [HYDROCHLOROTHIAZIDE] | 0.42
42 | O=C(N[C@H](CO)[C@H](O)c1ccc([N+](=O)[O-])cc1)C(Cl)Cl [CHLORAMPHENICOL] | 0.46
43 | CC(=O)Nc1ccc(O)cc1 [ACETAMINOPHEN] | 0.81
44 | Nc1nc(=O)[nH]cc1F [FLUCYTOSINE] | 1.11
45 | CC(=O)N1CCN(c2ccc(OC[C@H]3CO[C@](Cn4ccnc4)(c4ccc(Cl)cc4Cl)O3)cc2)CC1 [KETOCONAZOLE] | 0.84
46 | CO[C@@H]1[C@@H](OC(N)=O)[C@@H](O)[C@H](Oc2ccc3c(O)c(NC(=O)c4ccc(O)c(CC=C(C)C)c4)c(=O)oc3c2C)OC1(C)C [NOVOBIOCIN] | 0.35
47 | CC(C)(C)NCC(O)COc1cccc2c1CC(O)C(O)C2 (centres undefined) [NADOLOL] | 0.4
48 | CCC(C)n1ncn(-c2ccc(N3CCN(c4ccc(OC[C@H]5CO[C@](Cn6cncn6)(c6ccc(Cl)cc6Cl)O5)cc4)CC3)cc2)c1=O (some centres undefined) [ITRACONAZOLE] | 1.04
49 | CC1(C)S[C@@H]2[C@H](NC(=O)[C@H](N)c3ccc(O)cc3)C(=O)N2[C@H]1C(=O)O [AMOXICILLIN] | 1.21
50 | CC(C)NCC(O)c1ccc(NS(C)(=O)=O)cc1 (centres undefined) [SOTALOL] | 0.44

Row | SMILES | Log K'
51 | Cc1cc(=O)n(-c2ccccc2)n1C [ANTIPYRINE] | 0.69
52 | C[C@H]1c2cccc(O)c2C(=O)C2=C(O)[C@]3(O)C(=O)C(C(N)=O)=C(O)[C@@H](N(C)C)[C@@H]3[C@@H](O)[C@@H]21.O [DOXYCYCLINE] | 0.01
53 | CNC(=C[N+](=O)[O-])NCCSCc1ccc(CN(C)C)o1 [RANITIDINE] | 0.1
54 | CCOC(=O)C(C)(C)Oc1ccc(Cl)cc1 [CLOFIBRATE] | 0.27
55 | C[C@]12C=CC(=O)C=C1CC[C@@H]1[C@@H]2[C@@H](O)C[C@@]2(C)[C@H]1CC[C@]2(O)C(=O)CO [PREDNISOLONE] | 0.4
56 | O=c1c2ccccc2[se]n1-c1ccccc1 [EBSELEN] | 1.04
57 | CC(=O)O[C@H]1C[C@@]2(C)[C@@H](C[C@@H](O)[C@H]3[C@@]4(C)CC[C@@H](O)[C@@H](C)[C@@H]4CC[C@@]32C)/C1=C(\CCC=C(C)C)C(=O)O [FUSIDIC ACID] | 0.33
58 | C[C@H]1O[C@@H](O[C@H]2[C@@H](O)C[C@H](O[C@H]3[C@@H](O)C[C@H](O[C@H]4CC[C@@]5(C)[C@H](CC[C@@H]6[C@@H]5CC[C@]5(C)[C@@H](C7=CC(=O)OC7)CC[C@]65O)C4)O[C@@H]3C)O[C@@H]2C)C[C@H](O)[C@@H]1O [DIGITOXIN] | 0.13
59 | CCN(CC)CCOC(=O)c1ccc(N)cc1 [PROCAINE] | 0.19
60 | CO/N=C(\C(=O)N[C@@H]1C(=O)N2C(C(=O)O)=C(COC(N)=O)CS[C@H]12)c1ccco1 [CEFUROXIME] | 1.33
61 | CC(=O)[C@H]1CC[C@H]2[C@@H]3CCC4=CC(=O)CC[C@]4(C)[C@H]3CC[C@]12C [PROGESTERONE] | 0.59
62 | C[C@]12CCC(=O)C=C1CC[C@@H]1[C@@H]2[C@@H](O)C[C@@]2(C)[C@H]1CC[C@]2(O)C(=O)CO [HYDROCORTISONE] | 0.4
63 | C[C@H](CS)C(=O)N1CCC[C@H]1C(=O)O [CAPTOPRIL] | 2.69
64 | C=CCc1ccccc1OCC(O)CNC(C)C (centres undefined) [ALPRENOLOL] | 0.04
65 | Cc1nccn1CC1CCc2c(c3ccccc3n2C)C1=O (centres undefined) [ONDANSETRON] | 0.37
66 | C[C@H]1C[C@@H]2[C@H]([C@@H](O)C[C@@]3(C)[C@H]2CC[C@]3(O)C(=O)CO)[C@@]2(C)C=CC(=O)C=C12 [METHYLPREDNISOLONE] | 0.22
67 | CCCCNc1cc(C(=O)O)cc(S(N)(=O)=O)c1Oc1ccccc1 [BUMETANIDE] | 0.03
68 | CC1(C)S[C@@H]2[C@H](NC(=O)COc3ccccc3)C(=O)N2[C@H]1C(=O)O [PENICILLIN V] | 0.69
69 | CCCC(=O)Nc1ccc(OCC(O)CNC(C)C)c(C(C)=O)c1 (centres undefined) [ACEBUTOLOL] | 0.21
70 | O=C(O)c1cc(=O)c2c(OCC(O)COc3cccc4oc(C(=O)O)cc(=O)c34)cccc2o1 [CROMOLYN] | 1.07
71 | CN(C)c1ccc(O)c2c1C[C@H]1C[C@H]3[C@H](N(C)C)C(O)=C(C(N)=O)C(=O)[C@@]3(O)C(O)=C1C2=O [MINOCYCLINE] | 0.21
72 | CN(C)CCCN1c2ccccc2CCc2ccccc21 [IMIPRAMINE] | 0.75
73 | C[C@]12CC[C@@H]3c4ccc(O)cc4CC[C@H]3[C@@H]1CC[C@@H]2O [ESTRADIOL] | 0.68
74 | C[C@H]1COc2c(N3CCN(C)CC3)c(F)cc3c(=O)c(C(=O)O)cn1c23.C[C@H]1COc2c(N3CCN(C)CC3)c(F)cc3c(=O)c(C(=O)O)cn1c23.O [LEVOFLOXACIN] | 0.14

Reference: ChEMBL document CHEMBL1134302, “Cheminformatic models to predict binding affinities to human serum albumin” (J Med Chem, 2001)
